Experimental data: patent publication US11382907B2, “Methods and compositions for treating aging-associated impairments using CCR3-inhibitors” (Alkahest, Inc., priority 2017, dated 2022)
“Also recorded” adds a separate entry of the source.

What was measured:
CCR3 receptor = target: T1, CCR3 receptor (Homo sapiens, UniProt P51677); assay: CCR3 receptor internalization biomarker assay (FACS, whole blood); assay type: cell-based
T1 sequence (P51677 1-355): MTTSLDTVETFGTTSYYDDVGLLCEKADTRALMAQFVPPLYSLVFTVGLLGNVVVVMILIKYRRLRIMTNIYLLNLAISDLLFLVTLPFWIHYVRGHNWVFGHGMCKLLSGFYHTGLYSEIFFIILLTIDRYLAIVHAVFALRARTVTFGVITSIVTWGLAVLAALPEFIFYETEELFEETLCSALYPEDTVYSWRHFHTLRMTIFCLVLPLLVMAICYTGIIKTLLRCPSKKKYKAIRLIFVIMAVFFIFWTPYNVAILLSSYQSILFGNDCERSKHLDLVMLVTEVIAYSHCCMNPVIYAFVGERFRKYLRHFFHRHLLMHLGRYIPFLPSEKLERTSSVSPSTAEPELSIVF
Experimental: The CCR3 receptor internalization assay is FACS-based and uses human Eotaxin-1 (PreProTech, Rocky Hill, N.J.) and an anti-human CCR3 antibody labeled with APC (R&D Systems, Minneapolis, Minn.) or isotype control IgG2A antibody to monitor CCR3 receptor internalization in human eosinophils induced by human eotaxin-1 compared to naïve eosinophils. The median APC fluorescent intensity units for each sample were determined along with the mean of each set of sample triplicates.

[1] = tested on: two-month-old C57Bl/6 mice treated with rmCCL11; assay: Open Field test in young mice given recombinant mouse CCL11; assay type: in vivo; conditions: 2-month-old mice; rmCCL11 i.p.; Compound 1 30 mg/kg p.o. b.i.d., 2 weeks
Experimental: (§1) Open Field is used to evaluate general locomotor activity and exploratory behavior in a novel environment. Mice are brought to the experimental room for at least 30 min for acclimation to the experimental room conditions (dim lighting) prior to testing. The testing arena consists of a 50 cm×50 cm square arena. Mice are placed in the center of an arena and tracked for 15 minutes. Time spent in the peripheral and centers zones is analyzed, along with rearing behavior. 70% ethanol is used to clean all surfaces between trials.
[…] During the last week of treatment, mice were subjected to behavior testing prior to perfusion on the last day of treatment. All mice received 5 consecutive days of BrdU injection at 150 mg/kg IP immediately prior to treatment start. […]

Iba1-positive microglia = assay: IHC of Iba1-positive microglia in hippocampus of mice given daily LPS; assay type: in vivo, C57Bl/6 mice; conditions: 3-month-old mice, daily LPS IP 7 weeks, 30 mg/kg PO BID 4 weeks
Experimental: For fluorescent microscopy, the following antibodies were used in the given concentrations: GFAP, 1:500, DAKO; Iba1, 1:1000, Wako; and BrdU, 1:500, AbCam. Antigen retrieval protocol was required for BrdU (2N HCl, 37 C, 30 min) prior to blocking. The appropriate fluorescent secondary antibodies were applied the next day at a concentration of 1:300 for one hour at room temperature. Prolong Gold Mounting Media was used to coverslip the slides. Images were acquired on a light microscope at 5× magnification.
(§2) Three-month-old C57 mice were given daily doses of lipopolysaccharide (LPS) 0.5 mg/kg IP to induce inflammation and treated with Compound 1 for up to 4 weeks.
(§3) Treatment Groups: • Treatment Group 1, Vehicle treatment: 3-month-old C57 mice (n=10) received daily IP injection of LPS for 7 weeks and twice daily (BID) oral gavage (PO) treatment of vehicle solution for up to 4 weeks. • Treatment Group 2, Vehicle treatment and Oxazolone treatment: 3-month-old C57 mice (n=10) received daily IP injection of LPS for 7 weeks and twice daily (BID) oral gavage (PO) treatment of vehicle solution for up to 4 weeks. • Treatment Group 3, Compound 1 treatment and Oxazolone treatment: 3-month-old C57 mice (n=9) received daily IP injection of LPS for 7 weeks and twice daily (BID) oral gavage (PO) treatment of Compound 1, 30 mg/kg, for up to 4 weeks.

[2] = tested on: three-month-old C57 mice treated with LPS; assay: Open Field test (anxiety) in mice given daily LPS; assay type: in vivo; conditions: 3-month-old mice; daily LPS 0.5 mg/kg IP; 30 mg/kg PO BID, after 1 week
Experimental: as §1, §2, §3

## Cc1cc(C(=O)N(C)C)cc(NC(=O)[C@H]2CCC(=O)N2C2CCN(Cc3ccc(Cl)c(C)c3)CC2)n1 [Compound 1]
CCR3 receptor
  IC50: < 0.1 µM
CCR3 receptor; whole blood from humans treated with Compound 1, incubated with human recombinant eotaxin-1
  inhibition of CCR3 receptor internalization versus plasma Compound 1 concentration: robust concentration-dependent effect
[1]
  anxiety in the Open Field: improved anxiety
Iba1-positive microglia
  Iba1+ immunoreactivity (total microglia) in hippocampus: dramatically decreased Iba1+ immunoreactivity; also recorded: trend towards decrease
[2]
  anxiety in the Open Field: strongly decreased the increased anxiety; also recorded: decreased the LPS-induced anxiety
